Measured values from US20080213250A1, “Use of Eph Receptor Inhibitors for the Treatment of Neurodegenerative Diseases” (priority 2004, published 2008).

What was measured:
Test in all cases: Chemical proteomics pull-down with immobilized compound, LC-MS/MS identification
Conditions in all cases: maximum in any chemical proteomics experiment
EphB3 = target: T1, EphB3 (Mus musculus, UniProt P54754)
T1 sequence (P54754 30-993): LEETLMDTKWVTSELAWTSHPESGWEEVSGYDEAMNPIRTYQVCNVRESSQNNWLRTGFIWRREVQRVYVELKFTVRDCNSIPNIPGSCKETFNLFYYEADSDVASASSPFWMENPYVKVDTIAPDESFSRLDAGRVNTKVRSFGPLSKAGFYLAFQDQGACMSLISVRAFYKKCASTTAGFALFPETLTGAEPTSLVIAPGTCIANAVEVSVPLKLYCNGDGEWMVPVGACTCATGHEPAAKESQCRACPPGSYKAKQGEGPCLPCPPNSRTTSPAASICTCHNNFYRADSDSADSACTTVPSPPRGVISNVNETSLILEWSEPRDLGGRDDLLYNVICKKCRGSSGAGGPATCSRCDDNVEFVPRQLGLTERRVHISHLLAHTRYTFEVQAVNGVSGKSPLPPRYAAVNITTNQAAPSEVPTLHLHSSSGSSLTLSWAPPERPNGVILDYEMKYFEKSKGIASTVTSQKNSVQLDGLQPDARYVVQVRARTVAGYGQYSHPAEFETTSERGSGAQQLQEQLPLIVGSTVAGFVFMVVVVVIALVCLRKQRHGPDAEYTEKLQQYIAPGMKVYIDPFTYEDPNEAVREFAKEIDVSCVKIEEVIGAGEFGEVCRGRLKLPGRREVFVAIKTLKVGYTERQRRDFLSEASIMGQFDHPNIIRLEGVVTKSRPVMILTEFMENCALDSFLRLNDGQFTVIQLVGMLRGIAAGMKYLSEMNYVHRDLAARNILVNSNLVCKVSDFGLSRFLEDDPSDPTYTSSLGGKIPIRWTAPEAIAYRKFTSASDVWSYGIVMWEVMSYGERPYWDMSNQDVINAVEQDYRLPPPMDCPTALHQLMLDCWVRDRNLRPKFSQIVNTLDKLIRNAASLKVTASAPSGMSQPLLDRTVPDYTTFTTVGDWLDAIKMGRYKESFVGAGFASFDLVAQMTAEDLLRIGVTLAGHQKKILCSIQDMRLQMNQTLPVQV

EphA7 = EphA7 (Mus musculus, UniProt Q61772)
EphA7, sequence (Q61772 28-998): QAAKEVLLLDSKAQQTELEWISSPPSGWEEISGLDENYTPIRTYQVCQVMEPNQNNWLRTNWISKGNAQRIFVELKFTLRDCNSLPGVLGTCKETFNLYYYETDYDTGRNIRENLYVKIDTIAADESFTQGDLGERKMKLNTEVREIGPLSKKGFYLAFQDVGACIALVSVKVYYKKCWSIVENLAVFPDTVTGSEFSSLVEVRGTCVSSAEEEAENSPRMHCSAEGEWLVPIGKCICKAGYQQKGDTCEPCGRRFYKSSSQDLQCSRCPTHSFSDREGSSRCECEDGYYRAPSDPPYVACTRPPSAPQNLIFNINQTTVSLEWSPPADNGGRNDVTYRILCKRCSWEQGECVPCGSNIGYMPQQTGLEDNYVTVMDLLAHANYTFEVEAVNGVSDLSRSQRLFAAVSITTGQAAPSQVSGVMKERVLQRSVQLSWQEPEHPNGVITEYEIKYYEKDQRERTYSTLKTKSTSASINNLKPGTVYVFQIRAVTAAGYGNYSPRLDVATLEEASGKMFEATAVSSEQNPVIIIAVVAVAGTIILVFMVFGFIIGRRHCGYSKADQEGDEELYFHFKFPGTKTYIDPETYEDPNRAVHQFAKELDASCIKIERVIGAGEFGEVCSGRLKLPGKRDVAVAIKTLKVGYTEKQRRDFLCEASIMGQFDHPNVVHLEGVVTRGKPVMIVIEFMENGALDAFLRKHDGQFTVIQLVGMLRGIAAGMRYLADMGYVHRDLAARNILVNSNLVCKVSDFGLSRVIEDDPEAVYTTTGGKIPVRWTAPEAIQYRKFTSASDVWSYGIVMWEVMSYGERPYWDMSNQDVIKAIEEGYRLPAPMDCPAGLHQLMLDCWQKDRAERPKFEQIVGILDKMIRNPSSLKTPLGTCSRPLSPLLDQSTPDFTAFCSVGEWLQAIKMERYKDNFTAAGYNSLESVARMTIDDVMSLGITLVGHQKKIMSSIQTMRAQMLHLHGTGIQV

EphA5 = EphA5 (Mus musculus, UniProt Q60629)
EphA5, sequence (Q60629 27-876): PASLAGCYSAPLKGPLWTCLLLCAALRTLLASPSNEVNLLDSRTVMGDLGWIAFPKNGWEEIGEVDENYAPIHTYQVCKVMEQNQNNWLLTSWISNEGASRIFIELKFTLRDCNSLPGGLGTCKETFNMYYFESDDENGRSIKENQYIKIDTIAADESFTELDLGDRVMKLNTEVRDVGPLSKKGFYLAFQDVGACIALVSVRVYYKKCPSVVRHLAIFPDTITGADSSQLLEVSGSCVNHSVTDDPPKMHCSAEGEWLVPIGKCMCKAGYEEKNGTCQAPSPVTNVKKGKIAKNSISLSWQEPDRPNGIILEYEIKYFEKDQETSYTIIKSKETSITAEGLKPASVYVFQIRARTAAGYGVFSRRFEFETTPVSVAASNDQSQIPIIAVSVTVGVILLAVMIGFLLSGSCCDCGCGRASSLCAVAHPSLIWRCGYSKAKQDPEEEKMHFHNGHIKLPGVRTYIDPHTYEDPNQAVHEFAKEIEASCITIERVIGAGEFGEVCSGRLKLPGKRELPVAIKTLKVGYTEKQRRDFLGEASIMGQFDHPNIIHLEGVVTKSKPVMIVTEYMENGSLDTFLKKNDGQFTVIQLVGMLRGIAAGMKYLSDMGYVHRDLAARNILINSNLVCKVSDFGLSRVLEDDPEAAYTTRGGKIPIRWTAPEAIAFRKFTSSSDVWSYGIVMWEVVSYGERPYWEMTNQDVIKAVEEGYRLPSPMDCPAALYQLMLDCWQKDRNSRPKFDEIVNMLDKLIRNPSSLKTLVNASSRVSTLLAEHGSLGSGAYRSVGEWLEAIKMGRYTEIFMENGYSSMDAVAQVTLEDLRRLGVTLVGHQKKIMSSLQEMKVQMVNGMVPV

EphB4 = target: T2, EphB4 (Mus musculus, UniProt P54761)
T2 sequence (P54761 16-987): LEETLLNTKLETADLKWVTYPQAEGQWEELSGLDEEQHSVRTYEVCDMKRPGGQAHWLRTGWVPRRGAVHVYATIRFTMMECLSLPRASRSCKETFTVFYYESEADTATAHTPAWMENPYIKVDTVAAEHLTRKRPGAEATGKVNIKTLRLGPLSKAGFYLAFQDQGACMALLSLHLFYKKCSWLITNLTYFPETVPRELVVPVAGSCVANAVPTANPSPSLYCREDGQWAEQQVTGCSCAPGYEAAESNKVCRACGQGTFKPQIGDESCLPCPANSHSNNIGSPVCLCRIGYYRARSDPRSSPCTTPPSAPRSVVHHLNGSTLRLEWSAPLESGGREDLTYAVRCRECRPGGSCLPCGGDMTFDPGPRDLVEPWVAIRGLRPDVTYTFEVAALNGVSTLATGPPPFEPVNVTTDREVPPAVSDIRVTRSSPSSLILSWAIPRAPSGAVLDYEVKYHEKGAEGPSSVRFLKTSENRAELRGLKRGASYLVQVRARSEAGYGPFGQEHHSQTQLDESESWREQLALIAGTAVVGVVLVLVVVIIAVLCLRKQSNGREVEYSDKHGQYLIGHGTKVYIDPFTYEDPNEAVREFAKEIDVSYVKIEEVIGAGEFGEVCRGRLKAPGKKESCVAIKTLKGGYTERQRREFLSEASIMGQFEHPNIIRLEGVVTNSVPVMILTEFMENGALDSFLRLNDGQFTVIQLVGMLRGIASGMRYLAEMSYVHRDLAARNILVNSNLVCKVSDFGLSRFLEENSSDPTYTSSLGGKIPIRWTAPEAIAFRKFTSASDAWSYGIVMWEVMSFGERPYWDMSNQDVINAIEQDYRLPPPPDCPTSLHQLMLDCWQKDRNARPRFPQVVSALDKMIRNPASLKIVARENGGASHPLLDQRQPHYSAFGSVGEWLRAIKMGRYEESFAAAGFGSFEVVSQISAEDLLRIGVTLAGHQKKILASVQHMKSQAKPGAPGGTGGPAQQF

EphA4 = EphA4 (Mus musculus, UniProt Q03137)
EphA4, sequence (Q03137 20-986): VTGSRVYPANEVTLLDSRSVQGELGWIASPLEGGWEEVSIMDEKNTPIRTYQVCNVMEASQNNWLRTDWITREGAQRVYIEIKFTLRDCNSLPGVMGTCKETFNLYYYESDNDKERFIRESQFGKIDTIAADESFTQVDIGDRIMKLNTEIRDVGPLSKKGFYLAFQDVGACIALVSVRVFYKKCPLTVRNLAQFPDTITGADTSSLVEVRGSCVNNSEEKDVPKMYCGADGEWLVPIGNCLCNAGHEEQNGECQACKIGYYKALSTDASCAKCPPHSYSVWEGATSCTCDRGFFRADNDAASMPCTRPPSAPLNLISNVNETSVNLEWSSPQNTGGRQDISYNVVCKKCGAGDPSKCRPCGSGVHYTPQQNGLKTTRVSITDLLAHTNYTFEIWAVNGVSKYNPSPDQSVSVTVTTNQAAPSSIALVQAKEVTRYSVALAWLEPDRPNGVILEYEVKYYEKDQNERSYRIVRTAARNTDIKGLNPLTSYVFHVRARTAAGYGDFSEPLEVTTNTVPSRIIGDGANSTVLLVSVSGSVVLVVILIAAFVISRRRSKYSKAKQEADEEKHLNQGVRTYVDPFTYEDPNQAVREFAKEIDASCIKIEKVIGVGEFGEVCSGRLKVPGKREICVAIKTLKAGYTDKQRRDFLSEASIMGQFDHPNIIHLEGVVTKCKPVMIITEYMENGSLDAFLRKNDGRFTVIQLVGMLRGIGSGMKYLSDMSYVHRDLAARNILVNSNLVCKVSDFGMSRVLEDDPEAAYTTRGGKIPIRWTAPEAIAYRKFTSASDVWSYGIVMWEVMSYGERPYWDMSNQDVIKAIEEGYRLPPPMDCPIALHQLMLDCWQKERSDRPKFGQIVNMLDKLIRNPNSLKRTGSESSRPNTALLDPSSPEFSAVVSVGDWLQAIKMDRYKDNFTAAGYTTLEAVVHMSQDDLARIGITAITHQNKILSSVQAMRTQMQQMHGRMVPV

| Structure (SMILES) | maximal number of non-redundant peptides identified, EphB3 (EphB3) | maximal number of non-redundant peptides identified, EphA7 (EphA7) | maximal number of non-redundant peptides identified, EphA5 (EphA5) | maximal number of non-redundant peptides identified, EphB4 (EphB4) | maximal number of non-redundant peptides identified, EphA4 (EphA4) |
| --- | --- | --- | --- | --- | --- |
| CC(C)[C@H](CO)Nc1nc(Nc2ccc(C(=O)O)c(Cl)c2)c2ncn(C(C)C)c2n1 [Purvalanol B] | 4 | 4 | 5 | 46 | 14 |
| CSc1cccc(Nc2ncc3cc(-c4c(Cl)cccc4Cl)c(=O)n(C)c3n2)c1 [PD173955] | 17 | 7 | 4 | 17 | 47 |
